In patent US20240384350A1, “METHODS OF TREATING CANCER WITH KINASE INHIBITORS” (BOARD OF REGENTS, THE UNIVERSITY OF TEXAS SYSTEM, priority 2021, published 2024):

How the values were obtained:
Test in all cases: Ba/F3 drug screening, Cell Titer Glo, IC50 Mut/WT
Assay type in all cases: cell-based
EGFR D761N = molecular target: T1, EGFR D761N (Homo sapiens, UniProt P00533, D761N); conditions: Classical-Like, 72 hours
T1 construct: expressed in transfected cells; host or cells: Ba/F3 cells, retroviral pBabe-Puro vector

EGFR Ex19del/L792H = molecular target: T2, EGFR Ex19del/L792H (Homo sapiens, UniProt P00533, DEL746-750/L792H); conditions: PACC; Ex19del/L792H; Ba/F3; 72 hours
T2 construct: expressed in transfected cells; host or cells: Ba/F3

EGFR L833V = molecular target: T3, EGFR L833V (Homo sapiens, UniProt P00533, L833V); conditions: Classical-Like, 72 hours
T3 construct: expressed in transfected cells; host or cells: Ba/F3 cells, retroviral pBabe-Puro vector

EGFR V774M = molecular target: T4, EGFR V774M (Homo sapiens, UniProt P00533, V774M); conditions: PACC; V774M; Ba/F3; 72 hours
T4 construct: host or cells: Ba/F3

EGFR S768I/T790M = molecular target: T5, EGFR S768I/T790M (Homo sapiens, UniProt P00533, S768I/T790M); conditions: T790M-like-3S, 72 hours
T5 construct: expressed in transfected cells; host or cells: Ba/F3

EGFR S811F = molecular target: T6, EGFR S811F (Homo sapiens, UniProt P00533, S811F); conditions: Classical-Like, 72 hours
T6 construct: expressed in transfected cells; host or cells: Ba/F3 cells, retroviral pBabe-Puro vector (vector made by GeneScript from EGFR WT)

EGFR G719S T790M = molecular target: T7, EGFR G719S T790M (Homo sapiens, UniProt P00533, G719S/T790M); conditions: T790M-like-3S, 72 hours
T7 construct: expressed in transfected cells; host or cells: Ba/F3

EGFR E709A G719S = molecular target: T8, EGFR E709A G719S (Homo sapiens, UniProt P00533, E709A/G719S); conditions: PACC; E709A G719S; Ba/F3; 72 hours
T8 construct: expressed in transfected cells; host or cells: Ba/F3

EGFR D770insNPG = molecular target: T9, EGFR D770insNPG (Homo sapiens, UniProt P00533, INS770NPG); conditions: Ex20, 72 hours
T9 construct: expressed in transfected cells; host or cells: Ba/F3 cells, retroviral pBabe-Puro vector

EGFR L858R G724S = molecular target: T10, EGFR L858R G724S (Homo sapiens, UniProt P00533, G724S/L858R); conditions: PACC; L858R G724S; Ba/F3; 72 hours
T10 construct: expressed in transfected cells; host or cells: Ba/F3 (retroviral transduction, pBabe-Puro based vectors)

EGFR G719A = molecular target: T11, EGFR G719A (Homo sapiens, UniProt P00533, G719A); conditions: PACC; G719A; Ba/F3; 72 hours
T11 construct: expressed in transfected cells; host or cells: Ba/F3

EGFR S768dupSVD = molecular target: T12, EGFR S768dupSVD (Homo sapiens, UniProt P00533, DUP768-770); conditions: Ex20, 72 hours
T12 construct: expressed in transfected cells; host or cells: Ba/F3 cells, retroviral pBabe-Puro vector

EGFR G724S = molecular target: T13, EGFR G724S (Homo sapiens, UniProt P00533, G724S); conditions: PACC; G724S; Ba/F3; 72 hours
T13 construct: expressed in transfected cells; host or cells: Ba/F3

EGFR E709K = molecular target: T14, EGFR E709K (Homo sapiens, UniProt P00533, E709K); conditions: PACC; E709K; Ba/F3; 72 hours
T14 construct: expressed in transfected cells; host or cells: Ba/F3

EGFR E709A = molecular target: T15, EGFR E709A (Homo sapiens, UniProt P00533, E709A); conditions: PACC; E709A; Ba/F3; 72 hours
T15 construct: expressed in transfected cells; host or cells: Ba/F3

EGFR A767insASV = molecular target: T16, EGFR A767insASV (Homo sapiens, UniProt P00533, DUP767-769); conditions: Ex20, 72 hours
T16 construct: expressed in transfected cells; host or cells: Ba/F3 cells, retroviral pBabe-Puro vector

EGFR V769L = molecular target: T17, EGFR V769L (Homo sapiens, UniProt P00533, V769L); conditions: PACC; V769L; Ba/F3; 72 hours
T17 construct: expressed in transfected cells; host or cells: Ba/F3

EGFR T790M = molecular target: T18, EGFR T790M (Homo sapiens, UniProt P00533, T790M); conditions: T790M-like-3S, 72 hours
T18 construct: expressed in transfected cells; host or cells: Ba/F3

EGFR N771dupN = molecular target: T19, EGFR N771dupN (Homo sapiens, UniProt P00533, DUP771-771); conditions: Ex20, 72 hours
T19 construct: expressed in transfected cells; host or cells: Ba/F3 cells, retroviral pBabe-Puro vector

EGFR G724S T790M = molecular target: T20, EGFR G724S T790M (Homo sapiens, UniProt P00533, G724S/T790M); conditions: T790M-like-3R, 72 hours
T20 construct: expressed in transfected cells; host or cells: Ba/F3

EGFR H773insNPH = molecular target: T21, EGFR H773insNPH (Homo sapiens, UniProt P00533, INS773NPH); conditions: Ex20, 72 hours
T21 construct: expressed in transfected cells; host or cells: Ba/F3 cells, retroviral pBabe-Puro vector

EGFR L747P = molecular target: T22, EGFR L747P (Homo sapiens, UniProt P00533, L747P); conditions: PACC; L747P; Ba/F3; 72 hours
T22 construct: expressed in transfected cells; host or cells: Ba/F3

EGFR L858R T790M V843I = molecular target: T23, EGFR L858R T790M V843I (Homo sapiens, UniProt P00533, L858R/T790M/V843I); conditions: T790M-like-3S, 72 hours
T23 construct: expressed in transfected cells; host or cells: Ba/F3

EGFR Ex19del L718V = molecular target: T24, EGFR Ex19del L718V (Homo sapiens, UniProt P00533, DEL746-750/L718V); conditions: PACC; Ex19del L718V; Ba/F3; 72 hours
T24 construct: expressed in transfected cells; host or cells: Ba/F3

EGFR Ex19del/T790M/L792H = molecular target: T25, EGFR Ex19del/T790M/L792H (Homo sapiens, UniProt P00533, DEL746-750/L792H/T790M); conditions: T790M-like-3R, 72 hours
T25 construct: expressed in transfected cells; host or cells: Ba/F3

EGFR A763insLQEA = molecular target: T26, EGFR A763insLQEA (Homo sapiens, UniProt P00533, INS763LQEA); conditions: Classical-Like, 72 hours
T26 construct: expressed in transfected cells; host or cells: Ba/F3 cells, retroviral pBabe-Puro vector

EGFR Ex19del T854I = molecular target: T27, EGFR Ex19del T854I (Homo sapiens, UniProt P00533, DEL746-750/T854I); conditions: PACC; Ex19del T854I; Ba/F3; 72 hours
T27 construct: expressed in transfected cells; host or cells: Ba/F3 (retroviral transduction, pBabe-Puro based vectors)

EGFR K754E = molecular target: T28, EGFR K754E (Homo sapiens, UniProt P00533, K754E); conditions: Classical-Like, 72 hours
T28 construct: expressed in transfected cells; host or cells: Ba/F3 cells, retroviral pBabe-Puro vector

How did the “ratio of IC50 for cells with mutant EGFR to IC50 for cells with wildtype EGFR (Mut/WT)” value (“ratio of IC50 for cells with mutant EGFR” below) (EGFR D761N) turn out when `CN(C)C/C=C/C(=O)Nc1cc2c(Nc3ccc(Cl)c(Br)c3)ncnc2cn1` [Tarlox-TKI] was run?
Its value is 0.1319.

And the “ratio of IC50 for cells with mutant EGFR” value (EGFR Ex19del/L792H)?
Its value is 1.041.

What about the “ratio of IC50 for cells with mutant EGFR” value (EGFR L833V) of the same compound?
The value was 0.003152.

What about the “ratio of IC50 for cells with mutant EGFR” value (EGFR V774M) of the same compound?
The value was 0.2507.

And the “ratio of IC50 for cells with mutant EGFR” value (EGFR S768I/T790M)?
The value was 60.19.

And the “ratio of IC50 for cells with mutant EGFR” value (EGFR S811F)?
The value was 0.1118.

And the “ratio of IC50 for cells with mutant EGFR” value (EGFR G719S T790M)?
Its value is 3.949.

And the “ratio of IC50 for cells with mutant EGFR” value (EGFR E709A G719S)?
The value was 0.1143.

What about the “ratio of IC50 for cells with mutant EGFR” value (EGFR D770insNPG) of the same compound?
Its value is 5.023.

What about the “ratio of IC50 for cells with mutant EGFR” value (EGFR L858R G724S) of the same compound?
Its value is 0.02628.

And the “ratio of IC50 for cells with mutant EGFR” value (EGFR G719A)?
The value was 0.01637.

And the “ratio of IC50 for cells with mutant EGFR” value (EGFR S768dupSVD)?
The value was 0.3065.

And the “ratio of IC50 for cells with mutant EGFR” value (EGFR G724S)?
Its value is 8.499.

What about the “ratio of IC50 for cells with mutant EGFR” value (EGFR E709K) of the same compound?
Its value is 0.03467.

And the “ratio of IC50 for cells with mutant EGFR” value (EGFR E709A)?
Its value is 0.4803.

And the “ratio of IC50 for cells with mutant EGFR” value (EGFR A767insASV)?
The value was 0.9945.

And the “ratio of IC50 for cells with mutant EGFR” value (EGFR V769L)?
Its value is 0.3024.

And the “ratio of IC50 for cells with mutant EGFR” value (EGFR T790M)?
Its value is 4.92.

And the “ratio of IC50 for cells with mutant EGFR” value (EGFR N771dupN)?
The value was 7.062.

What about the “ratio of IC50 for cells with mutant EGFR” value (EGFR G724S T790M) of the same compound?
The value was 1.041.

What about the “ratio of IC50 for cells with mutant EGFR” value (EGFR H773insNPH) of the same compound?
The value was 11.56.

What about the “ratio of IC50 for cells with mutant EGFR” value (EGFR L747P) of the same compound?
Its value is 2.085.

What about the “ratio of IC50 for cells with mutant EGFR” value (EGFR L858R T790M V843I) of the same compound?
Its value is 70.97.

What about the “ratio of IC50 for cells with mutant EGFR” value (EGFR Ex19del L718V) of the same compound?
The value was 0.1214.

And the “ratio of IC50 for cells with mutant EGFR” value (EGFR Ex19del/T790M/L792H)?
Its value is 74.97.

What about the “ratio of IC50 for cells with mutant EGFR” value (EGFR A763insLQEA) of the same compound?
Its value is 0.0269.

And the “ratio of IC50 for cells with mutant EGFR” value (EGFR Ex19del T854I)?
Its value is 0.7019.

And the “ratio of IC50 for cells with mutant EGFR” value (EGFR K754E)?
Its value is 0.00723.
